Data set [1] deals with Mus musculus. The experiment in a line: Sedative activity in mouse assessed as sleeping time at 300 mg/kg, ip. The class given is functional.
Data set [2] concerns Mus musculus. The experiment in a line: Sedative activity in mouse assessed as sleeping time at 30 mg/kg, ip. The format is functional.
In data set [3] the test system is Mus musculus. The experiment in a line: Anticonvulsant activity in mouse at 100 mg/kg, po measured after 30 mins relative to control. The format is functional. To be noted: 0.5 h.
Data set [4] concerns Mus musculus. The experiment in a line: Sedative activity in mouse assessed as sleeping time at 100 mg/kg, ip. The class given is functional.
For another data set, the species on record is Oryctolagus cuniculus. The experiment in a line: Antihypertensive activity in rabbit aorta assessed as vasodilation. The format is functional.
Data set [5] concerns K562. The experiment in a line: Anticancer activity against human K562 cells assessed as cell growth inhibition. The class given is functional, cell-based.
A further data set has as its system RXF 393. The experiment in a line: Anticancer activity against human RXF 393 cell assessed as cell growth inhibition measured after 24 hrs by SRB assay. The format is functional. Background: In SRB staining, fixed cells bind dye roughly in proportion to their protein.
For data set [6], the system named is Human immunodeficiency virus 1. The experiment in a line: Antiviral activity against HIV1. The format is functional, organism-based.
Data set [7] has as its system Human immunodeficiency virus 1. The experiment in a line: Therapeutic index, ratio of IC50 for antiviral activity against HIV1 to EC50 for antiviral activity against HIV1. The format is functional.
In a further data set the test system is UO-31. The experiment in a line: Anticancer activity against human UO-31 cell assessed as cell growth inhibition measured after 24 hrs by SRB assay. The class given is functional.
Data set [8] can be described thus: Anticancer activity against human CNS cell assessed as cell growth inhibition measured after 24 hrs by SRB assay. The class given is functional.
The test system of data set [9] is Vaccinia virus. The experiment in a line: Antiviral activity against Vaccinia virus infected in human E6SM cells. The class given is functional. To be noted: Orthopoxvirus vaccinia.
In data set [10] the test system is Vaccinia virus. The experiment in a line: Antiviral activity against Vaccinia virus infected in human MT4 cells measured after 5 days by MTT assay. The format is functional, organism-based. To be noted: Orthopoxvirus vaccinia, MT4, 120 h. Background: Tetrazolium dyes change colour on reduction, which living cells bring about.
Data set [11] concerns Rattus norvegicus. The experiment in a line: Inhibition of AII-induced pressor response in normotensive conscious rat administered orally. The format is functional. To be noted: route po.
The subject of data set [12] is Rattus norvegicus. The experiment in a line: Inhibition of AII-induced pressor response in normotensive conscious rat administered intravenously. The following applies: route iv. The class given is functional.
The target of data set [13] is 5-hydroxytryptamine receptor 2A (Homo sapiens, UniProt P28223). The experiment in a line: Inhibition of 5-HT2A (unknown origin) assessed as inhibition constant.
5-hydroxytryptamine receptor 2A, sequence (P28223 whole entry): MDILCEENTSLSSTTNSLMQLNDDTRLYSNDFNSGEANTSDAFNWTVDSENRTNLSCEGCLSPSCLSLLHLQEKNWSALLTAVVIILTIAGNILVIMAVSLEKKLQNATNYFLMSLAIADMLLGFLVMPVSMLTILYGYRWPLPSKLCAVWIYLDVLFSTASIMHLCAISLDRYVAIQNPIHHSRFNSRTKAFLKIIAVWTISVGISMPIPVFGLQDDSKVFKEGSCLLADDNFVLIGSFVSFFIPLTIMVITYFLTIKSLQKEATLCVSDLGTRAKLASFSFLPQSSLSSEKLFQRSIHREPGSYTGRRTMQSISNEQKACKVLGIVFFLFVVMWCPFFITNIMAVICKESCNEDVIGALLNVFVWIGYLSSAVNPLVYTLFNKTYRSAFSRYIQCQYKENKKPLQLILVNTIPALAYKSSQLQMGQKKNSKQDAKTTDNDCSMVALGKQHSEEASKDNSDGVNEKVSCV
Another data set deals with WIL2. The experiment in a line: Anticancer activity against human WIL2 cell assessed as cell growth inhibition measured after 120 hrs. The class given is functional, cell-based. To be noted: WIL2, 120 h.
In the next data set the test system is CCRF-CEM. The experiment in a line: Anticancer activity against human CCRF-CEM cell assessed as cell growth inhibition measured after 120 hrs. The format is functional, cell-based.
Data set [14] in a line: Inhibition of HCV RNA IRES IIa by FRET assay. The arrangement: species or system Hepacivirus hominis.
The next data set has as its system SR. The experiment in a line: Anticancer activity against human SR cell assessed as cell growth inhibition measured after 24 hrs by SRB assay. The format is functional.
In data set [15] the test system is K562. The experiment in a line: Anticancer activity against human K562 cell assessed as cell growth inhibition measured after 24 hrs by SRB assay. The class given is functional.
A further data set has as its system MOLT-4. The experiment in a line: Anticancer activity against human MOLT-4 cell assessed as cell growth inhibition measured after 24 hrs by SRB assay. The class given is functional.
A further data set relates to A549. The experiment in a line: Anticancer activity against human A549 cell assessed as cell growth inhibition measured after 24 hrs by SRB assay. The format is functional.
Data set [16] deals with Mus musculus. The experiment in a line: Anticonvulsant activity in PTZ induced mouse at 100 mg/kg, ip relative to control. The class given is functional.
Data set [17] relates to Mus musculus. The experiment in a line: Anticonvulsant activity in mouse at 100 mg/kg, ip by MES test relative to control. The class given is functional.
The target in data set [18] is Prostaglandin G/H synthase 2 (Homo sapiens) (UniProt P35354). The experiment in a line: Inhibition of COXII (unknown origin) relative to control. To be noted: concentration not given here.
Prostaglandin G/H synthase 2 (Homo sapiens), sequence (P35354 whole entry): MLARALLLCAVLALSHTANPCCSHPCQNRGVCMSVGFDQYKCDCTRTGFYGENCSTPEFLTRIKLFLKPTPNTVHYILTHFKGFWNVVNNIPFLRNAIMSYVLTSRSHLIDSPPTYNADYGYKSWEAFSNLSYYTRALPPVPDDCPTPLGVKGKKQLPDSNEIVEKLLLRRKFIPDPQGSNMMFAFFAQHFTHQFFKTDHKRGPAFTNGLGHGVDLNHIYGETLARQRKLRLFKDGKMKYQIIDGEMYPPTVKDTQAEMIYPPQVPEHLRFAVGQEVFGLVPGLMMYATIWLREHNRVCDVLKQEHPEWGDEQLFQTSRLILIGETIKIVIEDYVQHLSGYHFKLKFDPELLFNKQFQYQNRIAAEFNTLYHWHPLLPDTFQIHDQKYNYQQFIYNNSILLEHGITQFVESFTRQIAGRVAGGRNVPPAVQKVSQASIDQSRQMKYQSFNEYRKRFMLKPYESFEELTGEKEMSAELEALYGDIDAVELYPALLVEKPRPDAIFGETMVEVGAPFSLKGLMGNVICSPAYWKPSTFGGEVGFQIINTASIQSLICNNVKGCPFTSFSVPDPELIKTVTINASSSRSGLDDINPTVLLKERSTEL
The test system of data set [19] is Mus musculus. The experiment in a line: Analgesic activity in […] albino mouse at 20 mg/kg, po measured after 2 hrs by Tail-Flick technique relative to control. The class given is functional.
For data set [20], the system named is Mus musculus. The experiment in a line: Analgesic activity in mouse at 100 mg/kg, ip measured after 30 mins relative to control. The class given is functional. The following applies: 0.5 h.
Data set [21] in a line: Therapeutic index, ratio of IC50 for antiviral activity against HIV infected in human H9 cells to EC50 for antiviral activity against HIV infected in human H9 cells. The following applies: human immunodeficiency virus, H9 cells infected with HIV; read-out: Ratio IC50/EC50. The format is toxicity, cell-based.
Data set [22] has as its system Human immunodeficiency virus. The experiment in a line: Antiviral activity against HIV infected in human H9 cells. The format is functional, organism-based. The following applies: Human immunodeficiency virus 1, H9.
Data set [23] can be described thus: Cytotoxicity against human CEM/ADR5000 cells assessed as reduction in cell growth. The class given is toxicity, cell-based.
Another data set has as its system Plasmodium falciparum. The experiment in a line: Antimalarial activity against plasmodium falciparum 3D7 assessed as bacterial growth inhibition. The format is functional, organism-based.
The target in data set [24] is Histamine H2 receptor (Homo sapiens) (UniProt P25021). The experiment in a line: Inhibition of histamine h2 (unknown origin).
Histamine H2 receptor (Homo sapiens), sequence (P25021 whole entry): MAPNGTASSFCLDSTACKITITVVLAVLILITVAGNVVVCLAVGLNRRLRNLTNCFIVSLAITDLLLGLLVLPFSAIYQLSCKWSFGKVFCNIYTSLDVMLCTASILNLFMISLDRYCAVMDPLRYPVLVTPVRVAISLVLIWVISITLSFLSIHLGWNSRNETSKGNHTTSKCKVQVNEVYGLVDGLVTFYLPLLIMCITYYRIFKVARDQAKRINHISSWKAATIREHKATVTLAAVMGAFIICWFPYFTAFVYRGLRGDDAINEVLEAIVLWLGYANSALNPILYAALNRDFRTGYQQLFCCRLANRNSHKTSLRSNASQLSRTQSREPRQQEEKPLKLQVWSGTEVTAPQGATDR
Data set [25] can be described thus: Anticancer activity against human Epidermoid carcinoma cell line assessed as cell growth inhibition. The format is functional. The following applies: read-out: ED50 (the source's name).
A further data set has as its system Ovarian carcinoma cell. The experiment in a line: Anticancer activity against human Ovarian carcinoma cell assessed as cell growth inhibition. To be noted: read-out: ED50 (the source's name). The format is functional.
Data set [26] has as its system Rattus norvegicus. The experiment in a line: Inhibition of AII-induced hypertension in rat assessed as vasoconstrictor at 3 mg/kg, po measured after 2 hrs. The format is functional.
A further data set has as its system MDA-MB-231. The experiment in a line: Anticancer activity against human MDA-MB-231 cells assessed as cell growth inhibition incubated for 24 hrs by MTT assay. The format is functional, cell-based. To be noted: MDA-MB-231, 24 h.
The next data set relates to HeLa. The experiment in a line: Anticancer activity against human HeLa cells assessed as cell growth inhibition incubated for 24 hrs by MTT assay. The class given is functional, cell-based.

Converted amounts (≈) assume the structure as drawn.

Take `O=c1c2ccccc2nc(-c2ccncc2)n1CCCN1CCOCC1`: the Time in the data set with Mus musculus [1] amounted to 7.1 min.

On to `Cc1ccccc1-n1c(C)nc2ccccc2c1=O` [METHAQUALONE], for which the figures for the Time in the data set with Mus musculus [2] and in the data set with Mus musculus [4] were 5.5 min and 119.7 min, respectively. For the same compound, the Activity in the data set on Mus musculus [3] is recorded as 20%.

As for `CC(=O)OC1C([N+](=O)[O-])c2ccccc2C(=O)N1[N+](=O)[O-]` (centres undefined), the pD2 in the data set filed under Oryctolagus cuniculus is listed as 5.36.

For `CCN(CC)C(=S)SCc1ccc2nc(C)nc(O)c2c1`, the IC50 in the data set with K562 [5] worked out at 500 nM.

For `Cc1ccc2c(c1)/C(=N\NC(=O)CSc1nc3ccccc3c(=O)n1-c1ccccc1)C(=O)N2`, the concentration for 50% growth inhibition (GI50) with RXF 393 was 1660 nM; in the data set with UO-31, 209 nM; in data set [8], 209 nM. For the same compound, the EC50 in data set [6] worked out at 68100 nM. Also, the IC50 in data set [6] was greater than 100000 nM. For the same compound, the “Ratio IC50/EC50” value in [7] is greater than 1.47.

For `CCc1nc(-n2c(-c3ccccc3)nc3ccc(Br)cc3c2=O)nc(N)c1-c1ccc(Cl)cc1`, the MIC in the data set on Vaccinia virus [9] worked out at 1.92 µg/mL (≈ 3.6 µM). Besides, in the data set on Vaccinia virus [10], the IC50 came out at 0.424 µg/mL (≈ 0.796 µM).

Turning to `CCCCc1nc2ccc(C(C)C)cc2c(=O)n1Cc1ccc(-c2ccccc2S(=O)(=O)NC(=O)C2CC2)cc1`, the results for the ED50 with Rattus norvegicus [11] and in the data set with Rattus norvegicus [12] were 0.68 mg/kg and 0.25 mg/kg, respectively.

Regarding `O=C(c1ccc(F)cc1)C1CCN(CCn2cnc3c(c2=O)CCCC3)CC1`, the Ki in data set [13] was 7.59 nM.

Regarding `COC(=O)CCC(NC(=O)c1ccc(NCc2ccc3nc(N)[nH]c(=O)c3c2Cl)s1)C(=O)OC` (centres undefined), the half-inhibitory concentration (IC50) was found to be 1800 nM in the data set with WIL2 and 2100 nM in the data set with CCRF-CEM.

Compound `NC1=NCc2ccccc2C(=O)N1` showed an EC50 in data set [14] of 650000 nM.

As for `Nc1nc2[nH]cnc2c(=S)[nH]1` [THIOGUANINE], the concentration for 50% growth inhibition (GI50) is 759 nM with RXF 393; 1620 nM with SR; 195 nM with K562 [15]; 1480 nM in the data set on UO-31; 9120 nM in the data set with MOLT-4; 4900 nM in data set [8]. In the data set with A549, the GI50 was 3550 nM.

Turning to `CCn1c(SCC(=O)NN2C(=O)C(C)S/C2=N\c2ccccc2)nc2ccccc2c1=O` (centres undefined), the Activity in the data set with Mus musculus [16] and in the data set on Mus musculus [17] was 66% in each case.

Take `COc1ccccc1C1SCC(=O)N1NCC(=O)Cc1nc2ccccc2c(=O)n1-c1c(C)[nH]c2ccccc12` (centres undefined): the inhibition in data set [18] came out at 90%. For the same compound, the Activity with Mus musculus [19] and in the data set on Mus musculus [20] was 80% each time.

With `COc1cc2nc(-c3ccccc3F)nc(O)c2cc1OC`, the selectivity ratio in [21] was found to be 9.17. In data set [22], the EC50 is 10900 nM and the IC50 turned out to be 100000 nM.

Turning to `C[C@H]1[C@H](OC(=O)CCC(=O)O)O[C@@H]2O[C@@]3(C)CC[C@H]4[C@H](C)CC[C@@H]1[C@@]24OO3` [ARTESUNATE], the EC50 in data set [23] is 500 nM.

With `C[C@@H]1CC[C@H]2[C@@H](C)C(=O)O[C@@H]3O[C@@]4(C)CC[C@@H]1[C@]32OO4` [ARTEMISININ], the EC50 in the data set on Plasmodium falciparum is 2.4 nM.

Compound `O=c1[nH]c(NCCCOc2cccc(CN3CCCCC3)c2)nc2ccccc12` displayed a pKb in data set [24] of 7.39.

Regarding `COc1cccc(-c2nc(O)c3cc(OC)ccc3n2)c1`, the EC50 (in data set [25]; in the data set with Ovarian carcinoma cell) was less than 5 µg/mL throughout.

With `CCCCc1nc2ccc([C@H]3OC[C@H]4[C@@H]3ON3[C@@H]4CCC3(C)C)cc2c(=O)n1Cc1ccc(-c2ccccc2-c2nn[nH]n2)cc1`, the Activity in the data set on Rattus norvegicus [26] amounted to 70 mmHg.

For `COc1cccc2c(=O)n(Cc3ccccc3)c(SCCCN3C(=O)c4ccccc4C3=O)nc12`, the IC50 in the data set on MDA-MB-231 and in the data set with HeLa was 1850 nM in each case.

With `Cc1nc2c(c(=O)n1CCN1CCC(C(=O)c3ccc(F)cc3)CC1)CCCC2`, in data set [13], the Ki was 2.63 nM.

For orientation: IC50 means the midpoint of a concentration-inhibition curve. Broadly, the GI50 is the concentration giving 50% growth inhibition. A word on the ED50: it is the dose that gives a 50% effect, or the effect in half of the subjects. Read a high ED50 as a need for a large dose. Broadly, the Ki is the dissociation constant of the complex between target and ligand, obtained from inhibition or displacement. A word on the inhibition: it is the share of the control response that was lost under treatment. Read a high inhibition as strong suppression. What is called pKb is the negative decadic logarithm of the Kb, by convention in mol/L. Lower therefore signals a high Kb.

The values are drawn from ChEMBL document CHEMBL5260833, “An overview of quinazolines: Pharmacological significance and recent developments” (Eur J Med Chem, 2018).
